Experimental data reported in patent US8541588B2, “Sulfonamide derivatives” (Pfizer Limited, priority 2009, dated 2013).

Each compound was assayed against T1, Nav1.7 (or SCN9A) channel; HEK cells stably transfected with hSCN9A (Homo sapiens, UniProt Q15858) (assay: Nav1.7 block, PatchXpress 7000 automated whole-cell voltage clamp, estimated IC50 (EIC50)). Conditions: PatchXpress platform; hSCN9A HEK cells held at V1/2 of inactivation; estimated IC50.
T1 construct: expressed in transfected cells
Format: cell-based

T1 sequence (Q15858 whole entry): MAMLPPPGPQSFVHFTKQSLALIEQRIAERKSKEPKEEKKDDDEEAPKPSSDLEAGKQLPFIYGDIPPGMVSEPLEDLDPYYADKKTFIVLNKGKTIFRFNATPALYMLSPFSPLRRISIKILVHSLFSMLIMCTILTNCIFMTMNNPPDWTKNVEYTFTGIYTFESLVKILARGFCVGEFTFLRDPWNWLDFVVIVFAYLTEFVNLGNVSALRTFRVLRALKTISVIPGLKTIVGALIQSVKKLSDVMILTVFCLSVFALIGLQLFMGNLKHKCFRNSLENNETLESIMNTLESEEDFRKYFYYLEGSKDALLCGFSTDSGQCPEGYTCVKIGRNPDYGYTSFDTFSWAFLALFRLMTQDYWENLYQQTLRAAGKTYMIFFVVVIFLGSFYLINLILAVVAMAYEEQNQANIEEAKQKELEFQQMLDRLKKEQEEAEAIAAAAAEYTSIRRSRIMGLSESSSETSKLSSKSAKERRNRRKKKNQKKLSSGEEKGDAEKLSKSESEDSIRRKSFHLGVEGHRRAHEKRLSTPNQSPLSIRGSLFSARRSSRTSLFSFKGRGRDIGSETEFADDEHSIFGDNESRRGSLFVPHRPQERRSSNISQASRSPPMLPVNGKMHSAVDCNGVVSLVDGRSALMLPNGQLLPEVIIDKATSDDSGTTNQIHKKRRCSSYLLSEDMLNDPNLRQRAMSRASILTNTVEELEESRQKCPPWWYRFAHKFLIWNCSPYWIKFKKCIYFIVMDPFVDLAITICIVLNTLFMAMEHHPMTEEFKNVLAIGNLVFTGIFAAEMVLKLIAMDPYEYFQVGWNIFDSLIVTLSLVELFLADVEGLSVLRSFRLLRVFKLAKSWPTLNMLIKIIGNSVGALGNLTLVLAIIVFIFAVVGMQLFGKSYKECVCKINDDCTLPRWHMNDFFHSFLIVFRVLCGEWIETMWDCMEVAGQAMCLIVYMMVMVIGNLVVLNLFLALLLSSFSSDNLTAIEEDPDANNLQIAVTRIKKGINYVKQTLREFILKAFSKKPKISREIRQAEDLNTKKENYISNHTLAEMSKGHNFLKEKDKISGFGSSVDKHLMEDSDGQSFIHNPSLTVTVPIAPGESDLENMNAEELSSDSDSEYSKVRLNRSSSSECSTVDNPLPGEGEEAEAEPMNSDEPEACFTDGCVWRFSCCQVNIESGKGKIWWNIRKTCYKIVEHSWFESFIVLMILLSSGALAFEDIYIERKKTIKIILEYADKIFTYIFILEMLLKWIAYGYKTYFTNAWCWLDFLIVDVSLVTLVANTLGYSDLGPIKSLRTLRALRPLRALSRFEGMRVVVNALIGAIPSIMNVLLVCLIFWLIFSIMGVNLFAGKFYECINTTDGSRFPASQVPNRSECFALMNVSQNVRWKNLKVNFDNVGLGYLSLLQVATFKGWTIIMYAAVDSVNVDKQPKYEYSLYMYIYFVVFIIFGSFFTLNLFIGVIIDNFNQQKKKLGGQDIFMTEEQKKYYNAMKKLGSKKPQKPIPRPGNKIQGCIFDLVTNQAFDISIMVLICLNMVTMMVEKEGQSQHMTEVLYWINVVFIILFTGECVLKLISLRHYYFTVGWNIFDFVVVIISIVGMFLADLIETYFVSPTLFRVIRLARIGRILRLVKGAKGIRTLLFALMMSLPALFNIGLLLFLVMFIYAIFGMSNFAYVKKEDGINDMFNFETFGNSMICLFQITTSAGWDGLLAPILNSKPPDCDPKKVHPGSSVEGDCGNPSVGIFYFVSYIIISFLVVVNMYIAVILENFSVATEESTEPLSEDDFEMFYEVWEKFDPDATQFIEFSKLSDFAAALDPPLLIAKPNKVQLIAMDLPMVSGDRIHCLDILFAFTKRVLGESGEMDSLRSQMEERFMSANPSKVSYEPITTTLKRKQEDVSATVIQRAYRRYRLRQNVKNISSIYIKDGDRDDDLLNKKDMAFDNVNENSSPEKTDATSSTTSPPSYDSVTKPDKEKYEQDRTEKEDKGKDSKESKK

SMILES | IC50 [nM]
Cc1cc(OC(C)C)ccc1-c1ccccc1Oc1ccc(S(=O)(=O)Nc2ncns2)cc1C#N [Example 4, 3-cyano-4-[(4′-isopropoxy-2′-methylbiphenyl-2-yl)oxy]-N-1,2,4-thiadiazol-5-ylbenzenesulfonamide] | 1710
NC(=O)c1cc(S(=O)(=O)Nc2nccs2)ccc1Oc1cnn(Cc2ccc(Cl)cc2)c1 [Example 249, 2-(1-(4-chlorobenzyl)-1H-pyrazol-4-yloxy)-5-(N-thiazol-2-ylsulfamoyl)benzamide] | 2400
Cc1ccc(Oc2ccc(S(=O)(=O)Nc3nccs3)cc2F)c(-c2c(C)cnn2C(C)(C)C)c1 [Example 223, 4-(2-(1-tert-butyl-4-methyl-1H-pyrazol-5-yl)-4-methylphenoxy)-3-fluoro-N-(thiazol-2-yl)benzenesulfonamide] | 1510
Cc1cc(S(=O)(=O)Nc2nccs2)ccc1Oc1ccccc1-c1ccccc1 [Example 258, 4-(biphenyl-2-yloxy)-3-methyl-N-1,3-thiazol-2-ylbenzenesulfonamide] | 1020
Cc1cc(C)n(-c2ccc(Oc3ccc(S(=O)(=O)Nc4nccs4)cc3C#N)cc2)n1 [Example 186, 3-cyano-4-[4-(3,5-dimethyl-pyrazol-1-yl)-phenoxy]-N-thiazol-2-yl-benzenesulfonamide] | 1050
Cc1cc(S(=O)(=O)Nc2ncns2)ccc1Oc1ccccc1-c1ccccc1 [Example 256, 4-(biphenyl-2-yloxy)-3-methyl-N-1,2,4-thiadiazol-5-ylbenzenesulfonamide] | 220
CC(C)(C)n1ccc(-c2cc(F)ccc2Oc2ccc(S(=O)(=O)Nc3nccs3)c(F)c2)n1 [Example 212, 4-(2-(1-tert-butyl-1H-pyrazol-3-yl)-4-fluorophenoxy)-2-fluoro-N-(thiazol-2-yl)benzenesulfonamide] | 15400
N#Cc1cc(S(=O)(=O)Nc2nccs2)ccc1Oc1ccc(-c2cc(C(F)(F)F)n[nH]2)cc1 [Example 202, 3-cyano-N-thiazol-2-yl-4-[4-(5-trifluoromethyl-2H-pyrazol-3-yl)-phenoxy]-benzenesulfonamide] | 600
N#Cc1cc(S(=O)(=O)Nc2ncns2)ccc1Oc1ccc(CN2CCC2)cc1F [Example 61, 4-[4-(azetidin-1-ylmethyl)-2-fluorophenoxy]-3-cyano-N-1,2,4-thiadiazol-5-ylbenzenesulfonamide] | 25700
Cn1cc(-c2ccccc2)c(Oc2ccc(S(=O)(=O)Nc3nccs3)cc2F)n1 [Example 233, 3-fluoro-4-(1-methyl-4-phenyl-1H-pyrazol-3-yloxy)-N-(thiazol-2-yl)benzenesulfonamide] | 3490
Cc1cccc(-c2cc(F)cc(F)c2)c1Oc1ccc(S(=O)(=O)Nc2ncns2)cc1C#N [Example 45, 3-cyano-4-[(3′,5′-difluoro-3-methylbiphenyl-2-yl)oxy]-N-1,2,4-thiadiazol-5-ylbenzenesulfonamide] | 30440
CN1C(=O)CCC1c1ccccc1Oc1ccc(S(=O)(=O)Nc2ncns2)cc1C#N (stereo not drawn) [Example 69, 3-cyano-4-[2-(1-methyl-5-oxopyrrolidin-2-yl)phenoxy]-N-1,2,4-thiadiazol-5-ylbenzenesulfonamide] | 36100
O=S(=O)(Nc1nccs1)c1ccc(Oc2cccc(Oc3ccccc3)c2)c(F)c1 [Example 126, 3-fluoro-4-(3-phenoxyphenoxy)-N-1,3-thiazol-2-ylbenzenesulfonamide] | 11500
COc1cc(S(=O)(=O)Nc2ncns2)ccc1Oc1ccn(Cc2ccc(Cl)cc2)n1 [Example 259, 4-{[1-(4-chlorobenzyl)-1H-pyrazol-3-yl]oxy}-3-methoxy-N-1,2,4-thiadiazol-5-ylbenzenesulfonamide] | 16500
Cc1nc(-c2ccccc2Oc2ccc(S(=O)(=O)Nc3nccs3)c(F)c2)cs1 [Example 2] | 810
COc1ccccc1-c1ccccc1Oc1ccc(S(=O)(=O)Nc2nccs2)c(F)c1 [Example 207, 2-fluoro-4-(2′-methoxybiphenyl-2-yloxy)-N-(thiazol-2-yl)benzenesulfonamide] | 1030

Same assay, conditions: estimated IC50; hSCN9A HEK cells, PatchXpress platform; Examples 283-814

SMILES | IC50 [nM]
Cn1nc(C(F)(F)F)cc1-c1ccc(Oc2cc(F)c(S(=O)(=O)Nc3nncs3)cc2Cl)c(C#N)c1 [Example 297, 5-chloro-4-{2-cyano-4-[1-methyl-3-(trifluoromethyl)-1H-pyrazol-5-yl]phenoxy}-2-fluoro-N-1,3,4-thiadiazol-2-ylbenzenesulfonamide] | 1000
O=S(=O)(Nc1nncs1)c1cc(Cl)c(Oc2ccc(Cl)cc2-c2ccn[nH]2)cc1F [Example 300, 5-chloro-4-[4-chloro-2-(1H-pyrazol-5-yl)phenoxy]-2-fluoro-N-1,3,4-thiadiazol-2-ylbenzenesulfonamide] | 39
N#Cc1cc(S(=O)(=O)Nc2ncns2)ccc1Oc1cc(F)c(Cl)cc1-c1cn[nH]c1 [Example 804, 4-[4-chloro-5-fluoro-2-(1H-pyrazol-4-yl)phenoxy]-3-cyano-N-1,2,4-thiadiazol-5-ylbenzenesulfonamide] | 1.2
Cc1cn(C)nc1-c1ccc(Oc2ccc(S(=O)(=O)Nc3nccs3)cc2C#N)cc1 [Example 470, 3-cyano-4-[4-(1,4-dimethyl-1H-pyrazol-3-yl)phenoxy]-N-1,3-thiazol-2-ylbenzenesulfonamide] | 3400
N#Cc1cc(S(=O)(=O)Nc2nccs2)ccc1Oc1ccc(-c2cn(CC(F)(F)F)nc2N)cc1 [Example 482, 4-{4-[3-amino-1-(2,2,2-trifluoroethyl)-1H-pyrazol-4-yl]phenoxy}-3-cyano-N-1,3-thiazol-2-ylbenzenesulfonamide] | >1000
Cn1cc(-c2cc(OC(F)(F)F)ccc2Oc2cc(F)c(S(=O)(=O)Nc3cscn3)cc2F)cn1 [Example 607, 2,5-difluoro-4-[2-(1-methyl-1H-pyrazol-4-yl)-4-(trifluoromethoxy)phenoxy]-N-1,3-thiazol-4-ylbenzenesulfonamide] | 2800
Cn1nccc1-c1cc(C(F)(F)F)ccc1Oc1cc(F)c(S(=O)(=O)Nc2ncns2)cc1F [Example 468, 2,5-difluoro-4-[2-(1-methyl-1H-pyrazol-5-yl)-4-(trifluoromethyl)phenoxy]-N-1,2,4-thiadiazol-5-ylbenzenesulfonamide] | 29
CC(C)(C)n1ccc(-c2cc(F)ccc2Oc2cc(F)c(S(=O)(=O)Nc3cscn3)cc2Cl)n1 [Example 520, 4-[2-(1-tert-butyl-1H-pyrazol-3-yl)-4-fluorophenoxy]-5-chloro-2-fluoro-N-1,3-thiazol-4-ylbenzenesulfonamide] | >1000
N#Cc1cc(S(=O)(=O)Nc2ncc(Cl)s2)ccc1Oc1ccc(Cl)cc1-c1cn[nH]c1N [Example 583, 4-[2-(5-Amino-1H-pyrazol-4-yl)-4-chlorophenoxy]-N-(5-chloro-1,3-thiazol-2-yl)-3-cyanobenzenesulfonamide] | 13
CC(C)(C)n1ccc(Cc2cccc(Oc3ccc(S(=O)(=O)Nc4cscn4)cc3C#N)c2)n1 [Example 769, 4-{3-[(1-tert-butyl-1H-pyrazol-3-yl)methyl]phenoxy}-3-cyano-N-1,3-thiazol-4-ylbenzenesulfonamide] | 8700
N#Cc1cc(S(=O)(=O)Nc2nccs2)ccc1Oc1ccc(Br)cc1-c1ccn[nH]1 [Example 461, 4-[4-bromo-2-(1H-pyrazol-5-yl)phenoxy]-3-cyano-N-1,3-thiazol-2-ylbenzenesulfonamide] | 20
Cn1nccc1-c1cc(C2CC2)ccc1Oc1ccc(S(=O)(=O)Nc2nccs2)cc1F [Example 309, 4-[4-Cyclopropyl-2-(1-methyl-1H-pyrazol-5-yl)phenoxy]-3-fluoro-N-1,3-thiazol-2-ylbenzenesulfonamide] | 25
CCn1nc(C(F)(F)F)cc1-c1ccc(Oc2ccc(S(=O)(=O)Nc3ncns3)cc2C#N)cc1 [Example 500, 3-cyano-4-{4-[1-ethyl-3-(trifluoromethyl)-1H-pyrazol-5-yl]phenoxy}-N-1,2,4-thiadiazol-5-ylbenzenesulfonamide] | 88
Cn1nc(C(F)(F)F)cc1-c1ccc(Oc2ccc(S(=O)(=O)Nc3ncc(F)s3)cc2C#N)cc1 [Example 387, 3-cyano-N-(5-fluoro-1,3-thiazol-2-yl)-4-{4-[1-methyl-3-(trifluoromethyl)-1H-pyrazol-5-yl]phenoxy}benzenesulfonamide] | 140
O=S(=O)(Nc1nncs1)c1cc(F)c(Oc2ccc(Cl)cc2-c2ccn[nH]2)cc1F [Example 302, 4-[4-chloro-2-(1H-pyrazol-5-yl)phenoxy]-2,5-difluoro-N-1,3,4-thiadiazol-2-ylbenzenesulfonamide] | 160
N#Cc1cc(S(=O)(=O)Nc2cscn2)ccc1Oc1ccc(Cl)cc1-c1ccnn1C(F)F [Example 402, 4-{4-chloro-2-[1-(difluoromethyl)-1H-pyrazol-5-yl]phenoxy}-3-cyano-N-1,3-thiazol-4-ylbenzenesulfonamide] | 250
Cc1ccccc1-c1cc(Cl)ccc1Oc1ccc(S(=O)(=O)Nc2nccs2)cc1C#N [Example 692, 4-[(5-chloro-2′-methylbiphenyl-2-yl)oxy]-3-cyano-N-1,3-thiazol-2-ylbenzenesulfonamide] | 110

Same assay, conditions: estimated IC50; hSCN9A HEK cells, PatchXpress platform; Examples 815-1040

SMILES | IC50 [nM]
O=S(=O)(Nc1nncs1)c1cc(Cl)c(Oc2cc(OC(F)(F)F)c(F)cc2-c2ccnnc2)cc1F [Example 965, 5-chloro-2-fluoro-4-[4-fluoro-2-pyridazin-4-yl-5-(trifluoromethoxy)phenoxy]-N-1,3,4-thiadiazol-2-ylbenzenesulfonamide] | 25
N#Cc1cc(S(=O)(=O)Nc2nncs2)ccc1Oc1ccc(C(F)(F)F)cc1-c1ccnnc1 [Example 946, 3-cyano-4-[2-pyridazin-4-yl-4-(trifluoromethyl)phenoxy]-N-1,3,4-thiadiazol-2-ylbenzenesulfonamide] | 230
CN1CC(n2nccc2-c2cc(C(F)(F)F)ccc2Oc2cc(F)c(S(=O)(=O)Nc3cscn3)cc2F)C1 [Example 1023, 2,5-Difluoro-4-{2-[1-(1-methylazetidin-3-yl)-1H-pyrazol-5-yl]-4-(trifluoromethyl)phenoxy}-N-1,3-thiazol-4-ylbenzenesulfonamide] | 4
